Laboratory results taken from the OligoGym collection.
“And” between values parts separate entries of the source, which are not always exact repeats. Identical values can stand only once. After the bases stand the sugars from the 5' end (letter, count) and the backbone: PS all phosphorothioate, else s phosphorothioate and o phosphodiester by linkage. Methylation of C is not given here. e = 2'-O-(2-methoxyethyl) (MOE); k = constrained ethyl (cEt); d = 2'-deoxy (DNA)

Target: IRF4
Details: ASO

Row | Sequence | target mRNA inhibition (SK-MEL-28, 4 µM) | target mRNA inhibition (MM.1R, 1 µM) | also measured
1 | TGCTTCAACACACTGT (sugars k3 d10 k3, PS) | 3% | – | –
2 | TGCTTGAGGTTTTCCT (sugars e1 k2 d9 k2 e2, PS) | – | 35% | –
3 | TGCTTGAGGTTTTCCT (sugars k3 d9 k3 e1, PS) | – | 46% | –
4 | TGCTTGAGGTTTTCCT (sugars kdddddddddkekeke, PS) | – | 9% | –
5 | TGCTTGAGGTTTTCCT (sugars kkkddddddddkekek, PS) | – | 27% | –
6 | TGCTTTGGGCACCAAA (sugars k3 d10 k3, PS) | 52% | – | –
7 | TGGAAACTCCTCTCCA (sugars k3 d10 k3, PS) | 16% | – | –
8 | TGGACATCTGCGGGTC (sugars k3 d10 k3, PS) | 44% | – | –
9 | TGGACTCGGAGCTGAG (sugars k3 d10 k3, PS) | 24% | – | –
10 | TGGAGAAGTCCCGTGG (sugars k3 d10 k3, PS) | – | -9% | –
11 | TGGCACCAAAAGTACC (sugars k3 d10 k3, PS) | 34% | – | –
12 | TGGCACCAAGGTCCAG (sugars k3 d10 k3, PS) | 1% | – | –
13 | TGGCCTTCCTGGCGGA (sugars k3 d10 k3, PS) | 9% | – | –
14 | TGGCGGAGCATCAACA (sugars k3 d10 k3, PS) | 37% | – | –
15 | TGGCGGATAGATCTGT (sugars k3 d10 k3, PS) | 34% | – | –
16 | TGGCTAGCAGAGGTTC (sugars k3 d10 k3, PS) | 56% | – | target mRNA inhibition (SK-MEL-28, 0.185 µM): 1%; target mRNA inhibition (SK-MEL-28, 5 µM): 62%; target mRNA inhibition (SK-MEL-28, 15 µM): 85%
17 | TGGGAGTACCCGCAGA (sugars k3 d10 k3, PS) | 26% | – | –
18 | TGGGATGCCACCATCC (sugars k3 d10 k3, PS) | – | -2% | –
19 | TGGGATTATATACTGG (sugars kkddddddddddkeke, PS) | – | 68% and 60% | target mRNA inhibition (MM.1R, 0.0625 µM): 21%; target mRNA inhibition (MM.1R, 0.25 µM): 43%; target mRNA inhibition (MM.1R, 4 µM): 83%
20 | TGGGTATTTATAACCG (sugars k3 d10 k3, PS) | – | 4% | –
21 | TGGTACGGGATTTCCG (sugars k3 d10 k3, PS) | 37% | – | –
22 | TGGTTGGCTGGTCTTT (sugars kkdddddddddkdkdk, PS) | – | 51% | –
23 | TGTAACGCACCCGCAG (sugars k3 d10 k3, PS) | – | -4% | –
24 | TGTAGTATGAGAAACG (sugars kddddddddddkekek, PS) | – | 7% | –
25 | TGTAGTATGAGAAACG (sugars kdddddddddkekeke, PS) | – | 14% | –

Row | Sequence | target mRNA inhibition (SK-MEL-28, 4 µM) | target mRNA inhibition (MM.1R, 1 µM) | also measured
26 | TGTAGTATGAGAAACG (sugars kkdddddddddkekek, PS) | – | 12% | –
27 | TGTAGTATGAGAAACG (sugars kkkdddddddddkeke, PS) | – | 29% | –
28 | TGTAGTATGAGAAACG (sugars kkkddddddddkekek, PS) | – | 23% | –
29 | TGTATCATGCATACCA (sugars k3 d10 k3, PS) | – | 3% | –
30 | TGTCAAAGAGCTTGCA (sugars k3 d10 k3, PS) | 11% | – | –
31 | TGTCACCTGGCAACCA (sugars k3 d10 k3, PS) | 9% | – | –
32 | TGTCACCTGGCAACCT (sugars k3 d10 k3, PS) | – | -4% | –
33 | TGTGAACATCTCAGAT (sugars k3 d10 k3, PS) | 12% | – | –
34 | TGTGATAGCTGAGCTG (sugars kkddddddddddkeke, PS) | – | 16% | –
35 | TGTGATAGCTGAGCTG (sugars kkdddddddddkekek, PS) | – | 17% | –
36 | TGTGCAAAACCAGTAC (sugars k3 d10 k3, PS) | – | -20% | –
37 | TGTGTATTACTCTTAG (sugars kddddddddddkekek, PS) | – | 58% and 56% | –
38 | TGTGTATTACTCTTAG (sugars kdddddddddkekeke, PS) | – | 32% and 52% | –
39 | TGTGTATTACTCTTAG (sugars kkdddddddddkekek, PS) | – | – | target mRNA inhibition (MM.1R, 0.0625 µM): 19%; target mRNA inhibition (MM.1R, 0.25 µM): 32%; target mRNA inhibition (MM.1R, 4 µM): 85%
40 | TGTTACCGATGCTTCA (sugars k3 d10 k3, PS) | 49% | – | –
41 | TGTTACCGATGCTTCA (sugars kkddddddddddkeke, PS) | – | 25% and 42% | –
42 | TGTTACCGATGCTTCA (sugars kkdddddddddkekek, PS) | – | 28% and 21% | –
43 | TTAAAGAGTGGTACAC (sugars k3 d10 k3, PS) | 6% | – | –
44 | TTAAGAGGCGACTGCT (sugars k3 d10 k3, PS) | 12% | – | –
45 | TTACAGCATCTAAGGC (sugars k3 d10 k3, PS) | 21% | – | –
46 | TTACTTCCCTGAGAAA (sugars k4 d8 k4, PS) | 14% | – | –
47 | TTAGACATTACTAGAT (sugars k3 d10 k3, PS) | 45% | – | –
48 | TTATATACTGGTTGGT (sugars kkddddddddddkeke, PS) | – | 47% | –
49 | TTATGCATGTTCCTCA (sugars k3 d10 k3, PS) | 57% | – | –
50 | TTATGTTAGCCAATTC (sugars kdddddddddkekeke, PS) | – | 9% and 2% | –

Row | Sequence | target mRNA inhibition (SK-MEL-28, 4 µM) | target mRNA inhibition (MM.1R, 1 µM) | also measured
51 | TTATTAGACTGACAGC (sugars k3 d10 k3, PS) | 37% | – | –
52 | TTATTTGTGGCTCAAC (sugars k3 d10 k3, PS) | 18% | – | –
53 | TTCAAAGCGCACCGCA (sugars k3 d10 k3, PS) | 49% | – | –
54 | TTCAGAGTCCTGAGAC (sugars k3 d10 k3, PS) | 46% | – | –
55 | TTCATAGCTAGTTCAT (sugars k3 d10 k3, PS) | 44% | – | –
56 | TTCATGTAAAGTCTGC (sugars k2 d9 e3 k2, PS) | – | 27% and 35% | –
57 | TTCATGTAAAGTCTGC (sugars kdddddddddkekeke, PS) | – | 9% and 3% | –
58 | TTCATGTAAAGTCTGC (sugars kkdddddddddekeke, PS) | – | 32% and 39% | –
59 | TTCATGTAAAGTCTGC (sugars kkdddddddddkdkdk, PS) | – | 14% and 35% | –
60 | TTCCAGTGGTGGGTCC (sugars k3 d10 k3, PS) | 29% | – | –
61 | TTCTACAAGGTCTGAG (sugars k3 d10 k3, PS) | 47% | – | –
62 | TTCTTATGCATGTTCC (sugars k3 d10 k3, PS) | 65% and 80% | – | –
63 | TTCTTTATAGTAGGTA (sugars k3 d10 k3, PS) | – | 15% | –
64 | TTCTTTATGCGAAGAA (sugars k3 d10 k3, PS) | 9% | – | –
65 | TTGAAGCAACACGGGA (sugars k3 d10 k3, PS) | 61% | – | –
66 | TTGATGTGATAGCTGA (sugars k3 d10 k3, PS) | – | 55% | –
67 | TTGATGTGATAGCTGA (sugars kkddddddddddkeke, PS) | – | 11% | –
68 | TTGCAGAGCAATTTAC (sugars k3 d10 k3, PS) | 50% | – | –
69 | TTGCTTTGCAGAGCAA (sugars k3 d10 k3, PS) | 28% | – | –
70 | TTGGAAACCAGCCCTT (sugars k3 d10 k3, PS) | 39% | – | –
71 | TTGGACAGAAGGGCAA (sugars k3 d10 k3, PS) | 29% | – | –
72 | TTGGCCTGCCGGCCTG (sugars k3 d10 k3, PS) | 4% | – | –
73 | TTGGTACGGGATTTCC (sugars k3 d10 k3, PS) | – | 34% | –
74 | TTGGTTGGCTGGTCTT (sugars k3 d10 k3, PS) | – | 76% and 72% | target mRNA inhibition (MM.1R, 0.0625 µM): 40%; target mRNA inhibition (MM.1R, 0.25 µM): 58%; target mRNA inhibition (MM.1R, 4 µM): 89%
75 | TTGGTTGGCTGGTCTT (sugars kkddddddddddkeke, PS) | – | 27% | –
